Measurements taken from PMC8308911, “Pharmacokinetic Study of Anti-osteoarthritic Compounds of a Standardized Fraction from Sphaeralcea Angustifolia” (Pharmaceuticals, 2021).
Read-outs that look alike come from different tables or passages of the source.

Legend:
[1] = mouse
Method: (§1) The investigation presented here expected manipulation conditions during all of the sample storage and process periods, which included the stability data from the freeze/defrost, bench-top, autosampler, and long-term stability tests. For all stability studies, fresh QC samples were evaluated by using a freshly prepared standard curve for the measurements. The analyzed conditions were 0, 8, and 24 h at room temperature, 8 h at 4 °C, and 30 days at −70 °C. The concentrations obtained from all of the stability studies were compared with the fresh QC samples, and the percentage of concentration deviation was calculated.

[2] = Stability of the active compounds in mouse plasma under handling and storage conditions; conditions: mice plasma
Method: as §1

[3] = Autosampler (4 °C, 8 h), nominal 2.5 μg/mL
[4] = Autosampler (4 °C, 8 h), nominal 5 μg/mL
[5] = Autosampler (4 °C, 8 h), nominal 10 μg/mL
[6] = Long-term (−70 °C, 1 month), nominal 2.5 μg/mL
[7] = Long-term (−70 °C, 1 month), nominal 5 μg/mL
[8] = Long-term (−70 °C, 1 month), nominal 10 μg/mL
[9] = room temperature, 0 h, nominal 2.5 μg/mL
[10] = room temperature, 0 h, nominal 5 μg/mL
[11] = room temperature, 0 h, nominal 10 μg/mL
[12] = room temperature, 8 h, nominal 2.5 μg/mL
[13] = room temperature, 8 h, nominal 5 μg/mL
[14] = room temperature, 8 h, nominal 10 μg/mL
[15] = room temperature, 24 h, nominal 2.5 μg/mL
[16] = room temperature, 24 h, nominal 5 μg/mL
[17] = room temperature, 24 h, nominal 10 μg/mL

With `COc1cc2ccc(=O)oc2cc1O` [Scopoletin, scopoletin] the “Accuracy Bias” value ([1]; 0 h, 2.5 μg/mL) was −0.48%, the “Observed Concentration” value ([1]; 0 h, 2.5 μg/mL) was 2.49 ± 0.12 µg/mL and the “Accuracy Bias” value ([1]; 0 h, 5 μg/mL) was 0.39%. For the same compound, the “Observed Concentration” value ([1]; 0 h, 5 μg/mL) was 5.02 ± 0.08 µg/mL, the “Accuracy Bias” value ([1]; 0 h, 10 μg/mL) was 0.04% and the “Observed Concentration” value ([1]; 0 h, 10 μg/mL) was 10.00 ± 0.37 µg/mL. The “Accuracy Bias” value ([1]; 1 month, 2.5 μg/mL) was −7.05%, the “Observed Concentration” value ([1]; 1 month, 2.5 μg/mL) was 2.32 ± 0.08 µg/mL and the “Accuracy Bias” value ([1]; 1 month, 5 μg/mL) was −2.27%. For the same compound, the “Observed Concentration” value ([1]; 1 month, 5 μg/mL) was 4.89 ± 0.17 µg/mL, the “Accuracy Bias” value ([1]; 1 month, 10 μg/mL) was −0.46% and the “Observed Concentration” value ([1]; 1 month, 10 μg/mL) was 9.95 ± 0.38 µg/mL. The “Accuracy Bias” value ([1]; 24 h, 2.5 μg/mL) was −4.63%, the “Observed Concentration” value ([1]; 24 h, 2.5 μg/mL) was 2.38 ± 0.08 µg/mL and the “Accuracy Bias” value ([1]; 24 h, 5 μg/mL) was 0.43%. The “Observed Concentration” value ([1]; 24 h, 5 μg/mL) was 5.02 ± 0.10 µg/mL, the “Accuracy Bias” value ([1]; 24 h, 10 μg/mL) was −6.61% and the “Observed Concentration” value ([1]; 24 h, 10 μg/mL) was 9.34 ± 0.27 µg/mL.
For `COc1cc2oc(=O)ccc2c(O)c1OC` [Tomentin, tomentin], the “Accuracy Bias” value [2, 3] was −2.64%, the “Observed Concentration” value [2, 3] was 2.43 ± 0.11 µg/mL and the “Accuracy Bias” value [2, 4] was −1.65%. For the same compound, the “Observed Concentration” value [2, 4] was 4.92 ± 0.14 µg/mL, the “Accuracy Bias” value [2, 5] was −0.65% and the “Observed Concentration” value [2, 5] was 9.93 ± 0.62 µg/mL. For the same compound, the “Accuracy Bias” value [2, 6] was −7.61%, the “Observed Concentration” value [2, 6] was 2.31 ± 0.09 µg/mL and the “Accuracy Bias” value [2, 7] was −2.90%. The “Observed Concentration” value [2, 7] was 4.85 ± 0.18 µg/mL, the “Accuracy Bias” value [2, 8] was −3.74% and the “Observed Concentration” value [2, 8] was 9.63 ± 0.65 µg/mL. The “Accuracy Bias” value [2, 9] was −4.59%, the “Observed Concentration” value [2, 9] was 2.39 ± 0.09 µg/mL and the “Accuracy Bias” value [2, 10] was −1.48%. The “Observed Concentration” value [2, 10] was 4.93 ± 0.11 µg/mL, the “Accuracy Bias” value [2, 11] was −0.41% and the “Observed Concentration” value [2, 11] was 9.96 ± 0.30 µg/mL. The “Accuracy Bias” value [2, 12] was −7.60%, the “Observed Concentration” value [2, 12] was 2.31 ± 0.08 µg/mL and the “Accuracy Bias” value [2, 13] was −0.86%. The “Observed Concentration” value [2, 13] was 4.96 ± 0.14 µg/mL, the “Accuracy Bias” value [2, 14] was −1.64% and the “Observed Concentration” value [2, 14] was 9.84 ± 0.40 µg/mL. For the same compound, the “Accuracy Bias” value [2, 15] was −5.93%, the “Observed Concentration” value [2, 15] was 2.35 ± 0.09 µg/mL and the “Accuracy Bias” value [2, 16] was −1.73%. For the same compound, the “Observed Concentration” value [2, 16] was 4.91 ± 0.17 µg/mL, the “Accuracy Bias” value [2, 17] was −4.52% and the “Observed Concentration” value [2, 17] was 9.55 ± 0.19 µg/mL.
